We go through eleven compounds from PubChem BioAssay (NCI).

Some test systems named below: ACHN renal; T-47D breast; EKVX NSCLC; SF-295 CNS; UO-31 renal; OVCAR-5 ovarian; MCF7 breast; UACC-257 melanoma; K-562 leukemia; CCRF-CEM leukemia.
Holding throughout (test): growth of human tumour cells (NCI), 48 h

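All cell lines were grown in 96-well plates and treated with compound for 48 hours. Here, GI50 denotes the concentration required for 50% inhibition of growth. TGI denotes the concentration required for complete inhibition of growth.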

Consider `O=C(c1ccccc1)C1OC1C(=O)c1ccccc1` (centres undefined), for which the GI50 is 3.67 µM in the assay on ACHN renal; 3.51 µM in the assay with T-47D breast; 6.68 µM in the assay on EKVX NSCLC; 5.03 µM in the assay with SF-295 CNS; 8.09 µM with UO-31 renal; 3.86 µM with OVCAR-5 ovarian. Besides, the GI50 was 2.34 µM in the assay with MCF7 breast and 5.75 µM in the assay on UACC-257 melanoma. For the same compound, the TGI is 15.7 µM in the assay with ACHN renal; greater than 100 µM in the assay with T-47D breast; greater than 100 µM in the assay with EKVX NSCLC; 37.3 µM with SF-295 CNS; 85.6 µM with UO-31 renal; 25.2 µM with OVCAR-5 ovarian. Moreover, the TGI was found to be 14.7 µM in the assay on MCF7 breast and 29.6 µM in the assay with UACC-257 melanoma.
On to `FC(F)(F)c1nc(SCc2ccc(Cl)cc2)n[nH]1`, for which the TGI in the assay with ACHN renal, with T-47D breast, in the assay on EKVX NSCLC, with SF-295 CNS, with UO-31 renal and with OVCAR-5 ovarian was greater than 100 µM each time. Further, the TGI with MCF7 breast, with K-562 leukemia and in the assay on UACC-257 melanoma was greater than 100 µM each time.
As to `CCc1[nH]nc(C(N)=O)c1N=NN(C)C`, the TGI in the assay with ACHN renal, with T-47D breast, with CCRF-CEM leukemia, in the assay on EKVX NSCLC, in the assay on SF-295 CNS and with UO-31 renal was greater than 100 µM throughout. In addition, the TGI is greater than 100 µM in the assay on MCF7 breast, 66.7 µM with K-562 leukemia and greater than 100 µM in the assay with UACC-257 melanoma.
With `CCOC(=O)Nc1ccc2c(c1)C(=O)N(CC)c1ccccc1O2`, the GI50 was 0.232 µM in the assay with ACHN renal; 0.0889 µM with CCRF-CEM leukemia; 0.264 µM in the assay with EKVX NSCLC; 0.0846 µM in the assay with SF-295 CNS; 0.379 µM with UO-31 renal; 0.139 µM in the assay on MCF7 breast. Besides, the results for the GI50 in the assay with K-562 leukemia and in the assay with UACC-257 melanoma were 0.0484 µM and 35.6 µM, respectively. For the same compound, the TGI was greater than 100 µM in the assay with ACHN renal; greater than 100 µM in the assay with CCRF-CEM leukemia; greater than 100 µM in the assay with EKVX NSCLC; 0.79 µM in the assay with SF-295 CNS; greater than 100 µM in the assay with UO-31 renal; greater than 100 µM with OVCAR-5 ovarian. The TGI in the assay on MCF7 breast, with K-562 leukemia and in the assay on UACC-257 melanoma was greater than 100 µM in each case.
Consider `COc1ccc(C2=NN(C(C)=O)C(c3ccc(Oc4ccnc5cc(Cl)ccc45)c(OC)c3)C2)cc1` (centres undefined), for which the GI50 in the assay with ACHN renal was 4.03 µM; with T-47D breast, 5.54 µM; in the assay with CCRF-CEM leukemia it was greater than 100 µM; in the assay with EKVX NSCLC it was 51.7 µM; with SF-295 CNS, 5.02 µM; in the assay with UO-31 renal it was greater than 100 µM. The figures for the GI50 in the assay on OVCAR-5 ovarian and in the assay with MCF7 breast were greater than 100 µM and 29.4 µM, respectively. Further, the TGI in the assay with ACHN renal was greater than 100 µM; with T-47D breast, 34.9 µM; in the assay on CCRF-CEM leukemia, greater than 100 µM; with EKVX NSCLC, greater than 100 µM; in the assay with SF-295 CNS, 37.2 µM; in the assay on UO-31 renal, greater than 100 µM. Further, the TGI in the assay on OVCAR-5 ovarian and in the assay with MCF7 breast was greater than 100 µM in each case.
For `COc1ccc(C[C@]23CCC(=O)N2CCc2cc(OC)c(O)cc23)cc1O`, the TGI in the assay on ACHN renal, in the assay with CCRF-CEM leukemia, in the assay with EKVX NSCLC, with SF-295 CNS, with UO-31 renal and with OVCAR-5 ovarian was greater than 100 µM each time. In addition, the TGI in the assay with K-562 leukemia and in the assay with UACC-257 melanoma was greater than 100 µM throughout.
On to `OCCN(CCO)c1nc(N2CCCCC2)c2nc(N(CCO)CCO)nc(N3CCCCC3)c2n1`, for which the TGI in the assay with ACHN renal, in the assay with T-47D breast, in the assay on CCRF-CEM leukemia, with EKVX NSCLC, with UO-31 renal and in the assay with OVCAR-5 ovarian was greater than 100 µM in each case. Also, the TGI in the assay with K-562 leukemia and in the assay on UACC-257 melanoma was greater than 100 µM in each case.
As for `C[N+](C)(C)C1CC([N+](C)(C)C)C2c3ccccc3C21` (centres undefined), the TGI with ACHN renal, in the assay on CCRF-CEM leukemia, in the assay on EKVX NSCLC, with SF-295 CNS, with UO-31 renal and in the assay with OVCAR-5 ovarian was greater than 100 µM in each case. In addition, the TGI in the assay on K-562 leukemia and with UACC-257 melanoma was greater than 100 µM throughout.
In the case of `CC[O-].CC[O-].O=C([CH-]C(=O)c1ccccc1)CCCCCCC(=O)[CH-]C(=O)c1ccccc1.[Ti+4]`, the GI50 with ACHN renal, in the assay on CCRF-CEM leukemia, in the assay with EKVX NSCLC, in the assay on SF-295 CNS, with UO-31 renal and in the assay with OVCAR-5 ovarian was greater than 100 µM each time. Also, the GI50 with K-562 leukemia and in the assay on UACC-257 melanoma was greater than 100 µM throughout. Besides, the TGI with ACHN renal, in the assay with CCRF-CEM leukemia, in the assay with EKVX NSCLC, in the assay on SF-295 CNS, in the assay on UO-31 renal and with OVCAR-5 ovarian was greater than 100 µM throughout. Moreover, the TGI with K-562 leukemia and with UACC-257 melanoma was greater than 100 µM throughout.
As to `O=C1NC2(CCCC2)C2CCCCC12O` (centres undefined), the TGI with ACHN renal, in the assay with CCRF-CEM leukemia, in the assay with EKVX NSCLC, in the assay with SF-295 CNS, in the assay on UO-31 renal and in the assay with OVCAR-5 ovarian was greater than 100 µM throughout. Further, the TGI in the assay with K-562 leukemia and with UACC-257 melanoma was greater than 100 µM in each case.
In the case of `CCN(CC)CCCNc1n[n+]([O-])c2ccccc2[n+]1[O-]`, the TGI with ACHN renal is 53.1 µM; in the assay on T-47D breast, 68.1 µM; in the assay on CCRF-CEM leukemia it was greater than 100 µM; with SF-295 CNS it was 49.3 µM; in the assay with UO-31 renal it was greater than 100 µM; in the assay on OVCAR-5 ovarian, 69.7 µM. Further, the TGI worked out at 42.4 µM in the assay with MCF7 breast, 76.1 µM in the assay on K-562 leukemia and 54.7 µM with UACC-257 melanoma.
